# According to ChEMBL document CHEMBL3045984, “Resistance to HPPD-inhibiting herbicides in a population of waterhemp (Amaranthus tuberculatus) from Illinois, United States” (2011):
# Legend:
# Format in all cases: functional
# [1] = system: Amaranthus tuberculatus; assay: Herbicidal activity against Amaranthus tuberculatus biotype MCR 16 assessed as visual injury at 560 g/ha applied as spray after 14 days under green house conditions relative to untreated control
# [2] = system: Amaranthus tuberculatus; assay: Herbicidal activity against Amaranthus tuberculatus biotype MCR 15 assessed as visual injury at 560 g/ha applied as spray after 14 days under green house conditions relative to untreated control
# [3] = system: Amaranthus tuberculatus; assay: Herbicidal activity against Amaranthus tuberculatus biotype MCR 12 assessed as visual injury at 560 g/ha applied as spray after 14 days under green house conditions relative to untreated control
# [4] = system: Amaranthus tuberculatus; assay: Herbicidal activity against Amaranthus tuberculatus biotype ACR assessed as visual injury at 560 g/ha applied as spray after 14 days under green house conditions relative to untreated control
# [5] = system: Amaranthus tuberculatus; assay: Herbicidal activity against Amaranthus tuberculatus biotype WCS assessed as visual injury at 560 g/ha applied as spray after 14 days under green house conditions relative to untreated control
# [6] = system: Amaranthus tuberculatus; assay: Herbicidal activity against Amaranthus tuberculatus biotype MCR 16 assessed as visual injury at 560 g/ha applied as spray after 7 days under green house conditions relative to untreated control
# [7] = system: Amaranthus tuberculatus; assay: Herbicidal activity against Amaranthus tuberculatus biotype MCR 15 assessed as visual injury at 560 g/ha applied as spray after 7 days under green house conditions relative to untreated control
# [8] = system: Amaranthus tuberculatus; assay: Herbicidal activity against Amaranthus tuberculatus biotype MCR 12 assessed as visual injury at 560 g/ha applied as spray after 7 days under green house conditions relative to untreated control
# [9] = system: Amaranthus tuberculatus; assay: Herbicidal activity against Amaranthus tuberculatus biotype ACR assessed as visual injury at 560 g/ha applied as spray after 7 days under green house conditions relative to untreated control
# [10] = system: Amaranthus tuberculatus; assay: Herbicidal activity against Amaranthus tuberculatus biotype WCS assessed as visual injury at 560 g/ha applied as spray after 7 days under green house conditions relative to untreated control
# [11] = system: Amaranthus tuberculatus; assay: Herbicidal activity against Amaranthus tuberculatus biotype MCR 16 assessed as visual injury at 560 g/ha applied as spray after 21 days under green house conditions relative to untreated control
# [12] = system: Amaranthus tuberculatus; assay: Herbicidal activity against Amaranthus tuberculatus biotype MCR 15 assessed as visual injury at 560 g/ha applied as spray after 21 days under green house conditions relative to untreated control
# [13] = system: Amaranthus tuberculatus; assay: Herbicidal activity against Amaranthus tuberculatus biotype MCR 12 assessed as visual injury at 560 g/ha applied as spray after 21 days under green house conditions relative to untreated control
# [14] = system: Amaranthus tuberculatus; assay: Herbicidal activity against Amaranthus tuberculatus biotype ACR assessed as visual injury at 560 g/ha applied as spray after 21 days under green house conditions relative to untreated control
# [15] = system: Amaranthus tuberculatus; assay: Herbicidal activity against Amaranthus tuberculatus biotype WCS assessed as visual injury at 560 g/ha applied as spray after 21 days under green house conditions relative to untreated control
# [16] = system: Amaranthus tuberculatus; assay: Herbicidal activity against Amaranthus tuberculatus biotype MCR 15 assessed as visual injury at 18 g/ha applied as spray after 14 days under green house conditions relative to untreated control
# [17] = system: Amaranthus tuberculatus; assay: Herbicidal activity against Amaranthus tuberculatus biotype MCR 12 assessed as visual injury at 18 g/ha applied as spray after 14 days under green house conditions relative to untreated control
# [18] = system: Amaranthus tuberculatus; assay: Herbicidal activity against Amaranthus tuberculatus biotype ACR assessed as visual injury at 18 g/ha applied as spray after 14 days under green house conditions relative to untreated control
# [19] = system: Amaranthus tuberculatus; assay: Herbicidal activity against Amaranthus tuberculatus biotype MCR 12 assessed as visual injury at 18 g/ha applied as spray after 7 days under green house conditions relative to untreated control
# [20] = system: Amaranthus tuberculatus; assay: Herbicidal activity against Amaranthus tuberculatus biotype ACR assessed as visual injury at 18 g/ha applied as spray after 7 days under green house conditions relative to untreated control
# [21] = system: Amaranthus tuberculatus; assay: Herbicidal activity against Amaranthus tuberculatus biotype WCS assessed as visual injury at 18 g/ha applied as spray after 21 days under green house conditions relative to untreated control
# [22] = system: Amaranthus tuberculatus; assay: Herbicidal activity against Amaranthus tuberculatus biotype MCR 16 assessed as visual injury at 18 g/ha applied as spray after 14 days under green house conditions relative to untreated control
# [23] = system: Amaranthus tuberculatus; assay: Herbicidal activity against Amaranthus tuberculatus biotype WCS assessed as visual injury at 18 g/ha applied as spray after 14 days under green house conditions relative to untreated control
# [24] = system: Amaranthus tuberculatus; assay: Herbicidal activity against Amaranthus tuberculatus biotype MCR 16 assessed as visual injury at 18 g/ha applied as spray after 7 days under green house conditions relative to untreated control
# [25] = system: Amaranthus tuberculatus; assay: Herbicidal activity against Amaranthus tuberculatus biotype MCR 15 assessed as visual injury at 18 g/ha applied as spray after 7 days under green house conditions relative to untreated control
# [26] = system: Amaranthus tuberculatus; assay: Herbicidal activity against Amaranthus tuberculatus biotype MCR 15 assessed as visual injury at 18 g/ha applied as spray after 21 days under green house conditions relative to untreated control
# [27] = system: Amaranthus tuberculatus; assay: Herbicidal activity against Amaranthus tuberculatus biotype MCR 12 assessed as visual injury at 18 g/ha applied as spray after 21 days under green house conditions relative to untreated control
# [28] = system: Amaranthus tuberculatus; assay: Herbicidal activity against Amaranthus tuberculatus biotype ACR assessed as visual injury at 18 g/ha applied as spray after 21 days under green house conditions relative to untreated control
# [29] = system: Amaranthus tuberculatus; assay: Herbicidal activity against Amaranthus tuberculatus biotype WCS assessed as visual injury at 18 g/ha applied as spray after 7 days under green house conditions relative to untreated control
# [30] = system: Amaranthus tuberculatus; assay: Herbicidal activity against Amaranthus tuberculatus biotype MCR 16 assessed as visual injury at 18 g/ha applied as spray after 21 days under green house conditions relative to untreated control
smiles,measurement,setting,value
CCNc1nc(Cl)nc(NC(C)C)n1 [ATRAZINE],Activity,[1],1%
same,Activity,[2],2%
same,Activity,[3],4%
same,Activity,[4],8%
same,Activity,[5],87%
same,Activity,[6],5%
same,Activity,[7],5%
same,Activity,[8],7%
same,Activity,[9],14%
same,Activity,[10],83%
same,Activity,[11],1%
same,Activity,[12],1%
same,Activity,[13],4%
same,Activity,[14],4%
same,Activity,[15],81%
Cc1c(C(=O)c2cnn(C)c2O)ccc(S(C)(=O)=O)c1C1=NOCC1 [TOPRAMEZONE],Activity,[16],59%
same,Activity,[17],42%
same,Activity,[18],93%
same,Activity,[19],41%
same,Activity,[20],69%
same,Activity,[21],100%
same,Activity,[22],64%
same,Activity,[23],96%
same,Activity,[24],54%
same,Activity,[25],52%
same,Activity,[26],42%
same,Activity,[27],36%
same,Activity,[28],96%
same,Activity,[29],84%
same,Activity,[30],58%
